Experimental data reported in the NIST ThermoML archive (doi:10.1021/je101178u).
Values joined by “and” are separate entries in the source; they are usually repeats but may differ in a detail not shown here. Identical values can stand only once.

Conditions: Fluid (supercritical or subcritical phases); for mass density: Buoyancy - hydrostatic balance with magnetic suspension - one sinker; for viscosity: vibrating wire

CCC [propane]
Conditions	mass density, 373.15 K	mass density, 423.15 K	viscosity, 373.15 K	viscosity, 423.15 K
79.37 kPa	–	0.99883 kg/m3	–	0.01136 mPa·s
158.25 kPa	–	1.9998 kg/m3	–	0.01137 mPa·s
313.56 kPa	–	3.9954 kg/m3	–	0.0114 mPa·s
466.92 kPa	–	5.9988 kg/m3	–	0.01142 mPa·s
467.03 kPa	–	6.0003 kg/m3	–	0.01143 mPa·s
611.2 kPa	–	7.9148 kg/m3	–	0.01145 mPa·s
611.47 kPa	–	7.9184 kg/m3	–	0.01145 mPa·s
763.44 kPa	–	9.9704 kg/m3	–	0.01148 mPa·s
763.61 kPa	–	9.9726 kg/m3	–	0.01148 mPa·s
920.8 kPa	–	12.133 kg/m3	–	0.01151 mPa·s and 0.01152 mPa·s
1060.2 kPa	–	14.082 kg/m3	–	0.01155 mPa·s
1061.3 kPa	–	14.098 kg/m3	–	0.01155 mPa·s
1192.7 kPa	–	15.966 kg/m3	–	0.01158 mPa·s
1193.5 kPa	–	15.977 kg/m3	–	0.01158 mPa·s
1334.7 kPa	–	18.018 kg/m3	–	0.01162 mPa·s
1335.7 kPa	–	18.032 kg/m3	–	0.01162 mPa·s
1454.8 kPa	–	19.782 kg/m3 and 19.781 kg/m3	–	0.01166 mPa·s
2110 kPa	–	29.905 kg/m3	–	0.01189 mPa·s
2110.7 kPa	–	29.916 kg/m3	–	0.01189 mPa·s
2704.3 kPa	–	39.922 kg/m3	–	0.01217 mPa·s
2704.8 kPa	–	39.931 kg/m3	–	0.01217 mPa·s
3242.6 kPa	–	49.821 kg/m3	–	0.01248 mPa·s
3243.3 kPa	–	49.834 kg/m3	–	0.01248 mPa·s
3747.9 kPa	–	59.965 kg/m3	–	0.01283 mPa·s
3749.2 kPa	–	59.991 kg/m3	–	0.01284 mPa·s
4207.4 kPa	–	70.041 kg/m3	–	0.01323 mPa·s
4207.9 kPa	–	70.052 kg/m3	–	0.01323 mPa·s
4515.1 kPa	229.821 kg/m3	–	0.02377 mPa·s	–
4530.1 kPa	241.836 kg/m3	–	0.02518 mPa·s	–
4530.2 kPa	241.88 kg/m3	–	0.02519 mPa·s	–
4556 kPa	256.611 kg/m3	–	0.02701 mPa·s	–
4556.1 kPa	256.634 kg/m3	–	0.027 mPa·s	–
4576.2 kPa	264.588 kg/m3	–	0.02805 mPa·s	–
4576.3 kPa	264.609 kg/m3	–	0.02806 mPa·s	–
4606.1 kPa	273.294 kg/m3 and 273.287 kg/m3	–	0.02925 mPa·s and 0.02926 mPa·s	–
4616.7 kPa	–	79.819 kg/m3	–	0.01365 mPa·s
4617.3 kPa	–	79.834 kg/m3	–	0.01365 mPa·s
4657.2 kPa	283.68 kg/m3	–	0.03078 mPa·s	–
4657.5 kPa	283.727 kg/m3	–	0.03078 mPa·s	–
4809.3 kPa	301.877 kg/m3	–	0.03369 mPa·s	–
4809.5 kPa	301.894 kg/m3	–	0.03367 mPa·s	–
5007.5 kPa	–	89.97 kg/m3	–	0.01412 mPa·s
5008.6 kPa	–	90.002 kg/m3	–	0.01412 mPa·s
5105.6 kPa	320.889 kg/m3	–	0.03705 mPa·s	–
5105.8 kPa	320.902 kg/m3	–	0.03706 mPa·s	–
5358.6 kPa	–	99.87 kg/m3	–	0.01462 mPa·s
5360.2 kPa	–	99.917 kg/m3	–	0.01462 mPa·s
5614.7 kPa	339.536 kg/m3	–	0.04075 mPa·s	–
5616.4 kPa	339.584 kg/m3	–	0.04077 mPa·s	–
5652.1 kPa	340.592 kg/m3	–	0.04096 mPa·s	–
5664.6 kPa	340.939 kg/m3	–	0.04104 mPa·s	–
5665.9 kPa	340.974 kg/m3	–	0.04105 mPa·s	–
5989.5 kPa	–	119.759 kg/m3	–	0.01573 mPa·s
5989.8 kPa	–	119.769 kg/m3	–	0.01573 mPa·s
6545.1 kPa	–	139.717 kg/m3	–	0.017 mPa·s
6545.3 kPa	–	139.725 kg/m3	–	0.017 mPa·s
6602.8 kPa	360.84 kg/m3	–	0.04555 mPa·s	–
6603.5 kPa	360.852 kg/m3	–	0.04553 mPa·s	–
7033 kPa	–	159.017 kg/m3	–	0.01838 mPa·s
7033.7 kPa	–	159.048 kg/m3	–	0.01838 mPa·s
7520.1 kPa	–	179.397 kg/m3	–	0.02002 mPa·s
7520.8 kPa	–	179.425 kg/m3	–	0.02002 mPa·s
7992.2 kPa	–	199.277 kg/m3	–	0.02182 mPa·s
7992.6 kPa	–	199.294 kg/m3	–	0.02182 mPa·s
8140.1 kPa	381.197 kg/m3	–	0.05077 mPa·s	–
8140.4 kPa	381.2 kg/m3	–	0.05076 mPa·s	–
8516 kPa	–	220.253 kg/m3	–	0.02395 mPa·s
8516.4 kPa	–	220.267 kg/m3	–	0.02394 mPa·s
9079.6 kPa	–	240.483 kg/m3	–	0.02624 mPa·s
9079.9 kPa	–	240.492 kg/m3	–	0.02623 mPa·s
9738.4 kPa	–	260.609 kg/m3	–	0.02877 mPa·s
9738.5 kPa	–	260.612 kg/m3	–	0.02878 mPa·s
10482 kPa	401.46 kg/m3	–	0.05673 mPa·s	–
10483 kPa	401.469 kg/m3	–	0.05674 mPa·s	–
10543 kPa	–	280.635 kg/m3	–	0.03161 mPa·s
10544 kPa	–	280.644 kg/m3	–	0.0316 mPa·s
11566 kPa	–	300.645 kg/m3 and 300.654 kg/m3	–	0.03477 mPa·s
12882 kPa	–	320.474 kg/m3	–	0.03827 mPa·s
12884 kPa	–	320.488 kg/m3	–	0.03828 mPa·s
13841 kPa	421.334 kg/m3 and 421.333 kg/m3	–	0.06347 mPa·s and 0.06343 mPa·s	–
14693 kPa	–	341.059 kg/m3	–	0.04235 mPa·s and 0.04234 mPa·s
17064 kPa	–	361.23 kg/m3	–	0.04694 mPa·s
17065 kPa	–	361.234 kg/m3	–	0.04691 mPa·s
18565 kPa	441.166 kg/m3	–	0.07127 mPa·s	–
18567 kPa	441.173 kg/m3	–	0.07127 mPa·s	–
20192 kPa	–	381.227 kg/m3	–	0.05209 mPa·s
20193 kPa	–	381.229 kg/m3	–	0.05209 mPa·s
24333 kPa	–	401.231 kg/m3	–	0.05798 mPa·s
24334 kPa	–	401.235 kg/m3	–	0.05795 mPa·s
25008 kPa	460.907 kg/m3	–	0.08006 mPa·s and 0.08024 mPa·s	–
25010 kPa	460.912 kg/m3	–	0.08022 mPa·s and 0.08013 mPa·s	–
28973 kPa	470.682 kg/m3	–	0.08526 mPa·s	–
28975 kPa	470.686 kg/m3	–	0.08531 mPa·s and 0.08536 mPa·s and 0.0853 mPa·s	–
29700 kPa	–	421.002 kg/m3	–	0.06464 mPa·s
29703 kPa	–	421.011 kg/m3	–	0.06466 mPa·s
29829 kPa	472.623 kg/m3	–	0.08626 mPa·s	–
29830 kPa	472.624 kg/m3	–	0.08626 mPa·s	–
